# Test results from US7910559B2, “Decladinosyl-macrolides with anti-inflammatory activity” (GlaxoSmithKline istrazivacki centar Zagreb d.o.o., priority 2005, dated 2011).
# Columns and labels:
# Assay type in all cases: cell-based
# [1] = test system: human TNF-α; experiment: Inhibition of TNF-α production by stimulated human peripheral blood leukocytes in vitro (ELISA); conditions: PBL
# Procedure: (§1) Substances, used in in vitro experiments, were dissolved in dimethyl sulfoxide (DMSO) (Kemika, Croatia) at concentrations of 50 mM and 10 mM and were further diluted to the final concentrations of […] in 1 mL Dulbecco's modified Eagle medium (DMEM) supplemented with 1% heat inactivated fetal bovine serum (FBS), 1% glutamax, 50 U/ml penicillin, 50 μg/ml streptomycin and 2.5 μg/mL Fungizone (amphotericin B). Media and all media supplements were purchased from Gibco, Australia, except FBS that was from Sigma, USA.
# (§2) Peripheral blood leukocytes (PBL) were obtained from venous blood of healthy volunteers by sedimentation on 2% dextran T-500 (Amersham Biosciences, USA) and subsequent centrifugations of leukocyte-rich plasma.
# (§3) Peripheral blood leukocytes (PBL), isolated as described above, were seeded in a 48-well plate at a concentration of 3-5×10^6 cell per well in culture medium consisting of RPMI 1640 medium (Institute of Immunology, Croatia) supplemented with 10% heat-inactivated fetal calf serum (FCS, Biowhittaker, USA), 100 U/ml penicillin (Gibco, Australia), 100 μg/ml streptomycin (Gibco, Australia) and 2 mM L-glutamine (Gibco, Australia), and preincubated with the tested compounds for 2 h at 37° C., in an atmosphere of 5% CO2, and 90% humidity. Afterwards, stimuli (Sigma, USA) were added to a final concentration of 2 μg/mL lipopolysaccharide (LPS), 1 μg/mL phorbol 12-myristate 13-acetate (PMA) or 120 μg/mL zymosan. Samples were incubated overnight under conditions described above. At the end of incubation supernatants were transferred to eppendorf tubes and centrifuged for 10 min at 1500 g. Concentrations of human TNF-α, IL-1β, IL-6 and IL-8 were determined in cell supernatants by sandwich ELISA, using capture and detection antibodies (R&D, USA) according to manufacturer's recommendations.
# (§4) Inhibition (as percentage) was calculated using the following formula: % inhibition=(1−concentration of cytokines in sample/concentration of cytokines in positive control)×100 where “positive control” refers to stimulated samples not treated with substances.
# [2] = test system: human IL-1β; experiment: Inhibition of IL-1β production by stimulated human peripheral blood leukocytes in vitro (ELISA); conditions: PBL
# Procedure: as §1, §2, §3, §4
# [3] = test system: human IL-6; experiment: Inhibition of IL-6 production by stimulated human peripheral blood leukocytes in vitro (ELISA); conditions: PBL
# Procedure: as §1, §2, §3, §4
# [4] = test system: human IL-8; experiment: Inhibition of IL-8 production by stimulated human peripheral blood leukocytes in vitro (ELISA); conditions: PBL
# Procedure: as §1, §2, §3, §4
# [5] = test system: human peripheral blood mononuclear cells (PBMC); experiment: Human peripheral blood mononuclear cell proliferation in vitro ((3H)thymidine incorporation)
# Procedure: as §1
# Heparinized peripheral blood was obtained from healthy donors, and peripheral blood mononuclear cells (PBMC) were isolated by Histopaque 1077 (Sigma, USA) density centrifugation at 400 g for 30 minutes. Collected PBMC were centrifuged in plasma at 400 g/10 min, resuspended and washed in RPMI 1640 (Institute of Immunology, Croatia) by centrifugation.
# Influence of substances at two different concentrations (50 μM and 10 μM) on proliferation of human peripheral blood mononuclear cells (PBMC) was assessed.
# Heparinized peripheral blood was obtained from healthy donors, and PBMC were isolated by Histopaque 1077 (Sigma, USA) density centrifugation at 400 g for 30 minutes. 5×10^4 cells/well were cultured for 3 days in the RPMI medium as described above, in the presence (positive control) or absence (negative control) of stimulators [PHA (2.5 μg/mL) (Sigma, USA) or both PMA (10 ng/mL) (Sigma, USA) and ionomycin (500 ng/mL) (Calbiochem, USA)] and tested substances at 37° C. in 5% CO2 and 90% humidity. The cells were pulsed with 1 μCi of (^3H)thymidine (Amersham, USA) per well during the last 18 h of the cultures and were harvested on a 96-well filter (Packard Bioscience, USA) with a multiple cell harvester (Packard, USA). The incorporation of (^3H)thymidine in activated cells was measured by TopCount NXT (Packard, USA).
# Inhibition of cell proliferation (as a percentage) was calculated using the following formula: % inhibition=(1−(^3H)thymidine incorporation expressed in counts per minute (cpm) in sample/(3H)thymidine incorporation expressed in cpm in positive control)×100 where “positive control” refers to stimulated samples not treated with substances.
# [6] = LPS stimulation, compound 10 μM
# [7] = LPS stimulation, compound 50 μM
# [8] = PMA stimulation, compound 10 μM
# [9] = PMA stimulation, compound 50 μM
# [10] = zymosan stimulation, compound 10 μM
# [11] = zymosan stimulation, compound 50 μM
substance,measurement,setting,value
3-O-(3-Diethylamino-propionyl)-3-O-decladinosyl-6-O-methyl-9a-aza-9a-homoerythromycin A [Example 2],Percentage of inhibition of TNF-α production,[1]; [6],37%
same,Percentage of inhibition of TNF-α production,[1]; [7],80%
same,Percentage of inhibition of TNF-α production,[1]; [8],34%
same,Percentage of inhibition of TNF-α production,[1]; [9],55%
same,Percentage of inhibition of TNF-α production,[1]; [10],13%
same,Percentage of inhibition of TNF-α production,[1]; [11],60%
same,Percentage of inhibition of IL-1β production,[2]; [6],83%
same,Percentage of inhibition of IL-1β production,[2]; [7],91%
same,Percentage of inhibition of IL-1β production,[2]; [8],60%
same,Percentage of inhibition of IL-1β production,[2]; [9],78%
same,Percentage of inhibition of IL-1β production,[2]; [10],96%
same,Percentage of inhibition of IL-1β production,[2]; [11],94%
same,Percentage of inhibition of IL-6 production,[3]; [6],40%
same,Percentage of inhibition of IL-6 production,[3]; [7],94%
same,Percentage of inhibition of IL-6 production,[3]; [8],17%
same,Percentage of inhibition of IL-6 production,[3]; [9],68%
same,Percentage of inhibition of IL-6 production,[3]; [10],45%
same,Percentage of inhibition of IL-6 production,[3]; [11],91%
same,Percentage of inhibition of IL-8 production,[4]; [6],40%
same,Percentage of inhibition of IL-8 production,[4]; [7],96%
same,Percentage of inhibition of IL-8 production,[4]; [8],0%
same,Percentage of inhibition of IL-8 production,[4]; [9],92%
same,Percentage of inhibition of IL-8 production,[4]; [10],32%
same,Percentage of inhibition of IL-8 production,[4]; [11],87%
same,Percentage of inhibition of proliferation of stimulated PBMC,"[5]; PHA stimulation, compound 10 μM",80%
same,Percentage of inhibition of proliferation of stimulated PBMC,"[5]; PHA stimulation, compound 50 μM",98%
same,Percentage of inhibition of proliferation of stimulated PBMC,"[5]; PMA + ionomycin stimulation, compound 10 μM",0%
same,Percentage of inhibition of proliferation of stimulated PBMC,"[5]; PMA + ionomycin stimulation, compound 50 μM",99%
